According to patent US11096910B2, “Metabolically robust analogs of CYP-eicosanoids for the treatment of cardiac disease” (OMEICOS THERAPEUTICS GMBH, priority 2015, dated 2021):

Experiments:
[1] = tested on: mouse neonatal primary cardiomyocyte culture; test: Oxygen-glucose deprivation/reoxygenation injury in primary cardiomyocytes; type: cell-based; conditions: for amelioration of loss of cell number: Hoechst 33342 staining
Experimental: In vitro ischemic injury was induced in mouse neonatal primary cardiomyocyte culture by oxygen-glucose deprivation for 18 hours and a 24 hours reoxygenation period in a humidified incubator with 5% CO2/95% air. Cardiomyocytes were incubated with the test compounds during 4 hours prior to the oxygen glucose depriviation (OGD) induction. The test compounds were also present during the OGD insult and during the 24 h-reoxygenation period. After the reoxygenation period, cell number was assessed by Hoechst 33342 staining, apoptosis was measured by determining caspase 3/7 activation, and cell membrane integrity or necrosis was measured as LDH release.
Data were expressed as mean±SD of three separate wells and individual comparisons were made with Student's t-test (SigmaPlot 9.0 program). The results were normalized to the normoxia-treated cells. Statistical significance (*) p<0.05 as compared to normoxia/DMSO-treated cells and (§) hypoxia/DMSO treated cells. Results

[2] = tested on: spontaneously beating neonatal rat cardiomyocytes (NRCMs); test: Spontaneous beating rate of neonatal rat cardiomyocytes (anti-arrhythmic cell model); type: cell-based; conditions: 20 nM or 30 nM; comparison between analogs
Experimental: The compounds include analogues being part of the invention (Comp-01 to Comp-05), which were synthesized as described in example 1, and additional related compounds (Comp-06 to Comp-13). A 1000-fold stock solutions in ethanol of the test compounds was prepared before use.
In order to measure the biological activities of metabolically robust analogs of CYP-eicosanoids an established cell model was used (Kang, J. X. et al., Proc Natl Acad Sci USA, 1994. 91(21): p. 9886-90). The spontaneously beating neonatal rat cardiomyocytes (NRCMs) are a model system to investigate anti-arrhythmic effects of test-compounds. […]
Isolation and cultivation of NRCMs were performed as described previously (Wallukat, G et al., J Clin Invest. 1999; 103: 945-952; Falck, J R et al., J Med Chem. 2011 Jun. 23; 54(12):4109-18). […] After four hours of incubation cells were adopted for 10 min to 31° C. and beating was recorded using an inverted microscope (Leica DM IRB) equipped with a CCD camera and coupled to an IonOptix (software: IonWizard6, IonOptix). To determine the basal rate, 6 to 8 individual clusters were selected and the number of contractions was counted for 15 sec. After that, the compound to be tested was added to the culture and the beating rate of the same clusters was monitored 5 min later again. […]

[3] = molecular target: T1, human soluble expoxide hydrolase (sEH) (Homo sapiens, UniProt P34913); test: In vitro inhibition of recombinant human soluble epoxide hydrolase; type: biochemical; conditions: 10 μM compound, 50 μM 14,15-EET substrate, vs vehicle control
T1 construct: purchased Cayman Chemicals
T1 sequence (P34913 1-555): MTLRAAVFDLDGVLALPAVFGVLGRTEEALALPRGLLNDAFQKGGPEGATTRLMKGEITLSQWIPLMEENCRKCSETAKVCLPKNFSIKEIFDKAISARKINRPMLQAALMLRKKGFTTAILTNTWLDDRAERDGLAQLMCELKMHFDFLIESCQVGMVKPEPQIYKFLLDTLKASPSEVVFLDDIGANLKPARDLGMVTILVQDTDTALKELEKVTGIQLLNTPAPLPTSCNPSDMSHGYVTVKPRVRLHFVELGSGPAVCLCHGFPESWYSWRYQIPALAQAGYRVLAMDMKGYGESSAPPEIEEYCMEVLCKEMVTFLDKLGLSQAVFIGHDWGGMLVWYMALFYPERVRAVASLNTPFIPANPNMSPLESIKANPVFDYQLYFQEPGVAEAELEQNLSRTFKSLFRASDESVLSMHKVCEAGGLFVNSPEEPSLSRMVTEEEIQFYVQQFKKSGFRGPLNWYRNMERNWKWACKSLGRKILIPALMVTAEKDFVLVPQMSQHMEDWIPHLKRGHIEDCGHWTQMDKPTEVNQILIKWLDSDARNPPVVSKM
Experimental: A selection of compounds was tested for the ability to inhibit human soluble expoxide hydrolase (sEH). […] Briefly, the assay was performed at 37° C. for 20 min in a final volume of 100 μL potassium phosphate buffer (0.1 M, pH 7.2) containing 50 μM 14,15-EET as substrate. The reactions were started by adding enzyme (107.5 ng per reaction, 12.06 U/ml activity, Cayman Chemicals) and terminated with 300 μl ethyl acetate. […] Metabolically robust analogs shown in FIG. 5 were tested at final concentration of 10 μM for potency of sEH-inhibition compared to vehicle control (1% DMSO), n=2-4.

CNC(=O)C(=O)NCCCC/C=C\CCCCCCCOCC(=O)O [Comp-02, 2-((13-(2-(methylamino)-2-oxoacetamido)tridec-8(Z)-en-1-yl)oxy)acetic acid]
reduction of cellular necrosis (LDH-release) ([1]; 30 nM): 43% | amelioration of loss of cell number ([1]; 30 nM): 35% | reduction of cellular necrosis (LDH-release) ([1]; 10 μM): 45% | amelioration of loss of cell number ([1]; 10 μM): 44% | protection against OGD-induced damage, in words ([1]; 18 h OGD, 24 h reoxygenation): partially protected against OGD-induced damage | reduction of OGD-induced apoptosis ([1]; caspase 3/7 activation, concentration not given): 43% | reduction of OGD-induced necrosis ([1]; concentration not given): 29% | negative chronotropic effect on NRCMs, in words [2]: equal potency | inhibition of human sEH [3]: did not show sEH-inhibition
